Experimental data reported in patent publication US5595730A, “Lactate dehydrogenase inhibitors in cosmetic compositions” (priority 1996, dated 1997).
Read-outs that look alike come from different tables or passages of the source.

Legend:
procollagen 1 = experiment: Assay for collagen synthesis (secreted procollagen 1 immunoassay, fibroblasts); conditions: actives 0.2 to 20 mM, serum-free medium, 48 hours
Description: Neonatal human dermal fibroblasts were purchased from Clonetics Corp., San Diego, Calif. All materials for cell culture were purchased from Life Technologies, N.Y. Cells were maintained in DMEM with 10% fetal bovine serum and used in passages 5-10. Confluent 96-well plates containing fibroblasts were treated with actives (0.2 to 20 mM) in serum-free medium for 48 hours. […] This was carried out in a BioDot SF apparatus according to the manufacturer's instructions (BioRad Labs, CA) and the blot was developed using a Vectastain Kit (PK6104, Vector Labs, CA) as per the manufacturer's directions. Color intensity was quantitated using an Ultroscan XL densitometer (Pharmacia LKB). Fold increase was calculated as (density of treated)/untreated.

[1] = test system: Normal human epidermal keratinocytes (NHEK); experiment: Keratinocyte proliferation (DNA content, fluorometric); type: cell-based; conditions: for activation at 70 µM: 0.07 mM; for Keratinocyte proliferation, % Increase Over Control: Table 7, single agent alone
Description: Normal human epidermal keratinocytes (NHEK) derived from neonatal foreskin were used for all experiments. Media were purchased from Clonetics Corp., San Diego, Calif. Cell stocks frozen in passage 2 were grown in Keratinocyte Growth Medium (KGM) and passaged when 70-80% confluent. Cells were seeded in 96 well plates (Corning) at a density of 7500 cells/well in KGM. After 24 hours, cells were rinsed and dosed with test compounds in 200 μl of Keratinocyte Basal Medium (KBM). Plates were incubated for three days at 37° C., 5% CO2. Cell proliferation was estimated by assaying for DNA content by a fluorometric method described by Rago et al. (Analytical Biochemistry, 191:31-34, 1990). Medium was removed and cells were rinsed with phosphate buffered saline solution. 100 μl of sterile distilled water was added to each well and plates were frozen at -70° C. for one and a half hours. Plates were thawed for one hour at which time 100 μl of a 20 ug/ml solution of Bisbenzimide H33258 fluorochrome (Calbiochem Corp., La Jolla, Calif.) was added to each well. The fluorochrome was prepared just prior to use in 10 mM Tris, 1 mM EDTA, 4M NaCI, pH 7.4. Plates were read in a Millipore Cytofluor fluorescent plate reader to quantify DNA (excitation 360 nm, emission 460 nm). Percent increase over control was calculated from blank-corrected readings as (treated-untreated)/(untreated)*100. Each data point in the Tables below represents a mean of 5 or 6 replicates.
The procedure of Example 2 was repeated except that various co-active ingredients were tested for their ability to stimulate keratinocyte proliferation.
The procedure of Example 2 was repeated to test the effect of combination of an LDH inhibitor with another carboxylic acid on keratinocyte proliferation.

CC(=O)O [Acetate]
Collagen Synthesis, Maximum fold over Control (procollagen 1): 2.0 fold | activation at 2 µM ([1]; Homo sapiens, NHEK, 72 h, Table 4, Test A, 0.002 mM, read-out: Keratinocyte Proliferation (% increase over control)): 22% | activation at 20 µM ([1]; Homo sapiens, NHEK, 72 h, Table 4, Test A, 0.02 mM, read-out: Keratinocyte Proliferation (% increase over control)): 31% | activation at 200 µM ([1]; Homo sapiens, NHEK, 72 h, Table 4, Test A, 0.2 mM, read-out: Keratinocyte Proliferation (% increase over control)): 43% | activation at 2000 µM ([1]; Homo sapiens, NHEK, 72 h, Table 4, Test A, 2.0 mM, read-out: Keratinocyte Proliferation (% increase over control)): 46% | activation at 10000 µM ([1]; Homo sapiens, NHEK, 72 h, Table 4, Test A, 10 mM, read-out: Keratinocyte Proliferation (% increase over control)): 63% | activation at 200 µM ([1]; Homo sapiens, NHEK, 72 h, Table 4, Test B, 0.2 mM, read-out: Keratinocyte Proliferation (% increase over control)): 12% | activation at 2000 µM ([1]; Homo sapiens, NHEK, 72 h, Table 4, Test B, 2.0 mM, read-out: Keratinocyte Proliferation (% increase over control)): 19% | activation at 10000 µM ([1]; Homo sapiens, NHEK, 72 h, Table 4, Test B, 10 mM, read-out: Keratinocyte Proliferation (% increase over control)): 0% | activation at 20000 µM ([1]; Homo sapiens, NHEK, 72 h, Table 4, Test B, 20 mM, read-out: Keratinocyte Proliferation (% increase over control)): 0% | activation at 156 µM ([1]; Homo sapiens, NHEK, 72 h, Table 4, Test C, 0.156 mM, read-out: Keratinocyte Proliferation (% increase over control)): 13% | activation at 313 µM ([1]; Homo sapiens, NHEK, 72 h, Table 4, Test C, 0.313 mM, read-out: Keratinocyte Proliferation (% increase over control)): 32% | activation at 625 µM ([1]; Homo sapiens, NHEK, 72 h, Table 4, Test C, 0.625 mM, read-out: Keratinocyte Proliferation (% increase over control)): 9% | activation at 1250 µM ([1]; Homo sapiens, NHEK, 72 h, Table 4, Test C, 1.25 mM, read-out: Keratinocyte Proliferation (% increase over control)): 2% | activation at 2500 µM ([1]; Homo sapiens, NHEK, 72 h, Table 4, Test C, 2.5 mM, read-out: Keratinocyte Proliferation (% increase over control)): 11% | activation at 5000 µM ([1]; Homo sapiens, NHEK, 72 h, Table 4, Test C, 5.0 mM, read-out: Keratinocyte Proliferation (% increase over control)): 0% | activation at 10000 µM ([1]; Homo sapiens, NHEK, 72 h, Table 4, Test C, 10 mM, read-out: Keratinocyte Proliferation (% increase over control)): 0% | activation at 70 µM ([1]; Homo sapiens, NHEK, 72 h, Table 4, Test D, read-out: Keratinocyte Proliferation (% increase over control)): 50% | activation at 156 µM ([1]; Homo sapiens, NHEK, 72 h, Table 4, Test D, 0.156 mM, read-out: Keratinocyte Proliferation (% increase over control)): 47% | activation at 313 µM ([1]; Homo sapiens, NHEK, 72 h, Table 4, Test D, 0.313 mM, read-out: Keratinocyte Proliferation (% increase over control)): 56% | activation at 625 µM ([1]; Homo sapiens, NHEK, 72 h, Table 4, Test D, 0.625 mM, read-out: Keratinocyte Proliferation (% increase over control)): 57% | activation at 1250 µM ([1]; Homo sapiens, NHEK, 72 h, Table 4, Test D, 1.25 mM, read-out: Keratinocyte Proliferation (% increase over control)): 42% | activation at 2500 µM ([1]; Homo sapiens, NHEK, 72 h, Table 4, Test D, 2.5 mM, read-out: Keratinocyte Proliferation (% increase over control)): 44% | activation at 5000 µM ([1]; Homo sapiens, NHEK, 72 h, Table 4, Test D, 5.0 mM, read-out: Keratinocyte Proliferation (% increase over control)): 18% | activation at 70 µM ([1]; Homo sapiens, NHEK, 72 h, Table 4, Test E, read-out: Keratinocyte Proliferation (% increase over control)): 0% | activation at 156 µM ([1]; Homo sapiens, NHEK, 72 h, Table 4, Test E, 0.156 mM, read-out: Keratinocyte Proliferation (% increase over control)): 6% | activation at 313 µM ([1]; Homo sapiens, NHEK, 72 h, Table 4, Test E, 0.313 mM, read-out: Keratinocyte Proliferation (% increase over control)): 24% | activation at 313 µM ([1]; Homo sapiens, NHEK, 72 h, Table 4, Test F, 0.313 mM, read-out: Keratinocyte Proliferation (% increase over control)): 5% | activation at 625 µM ([1]; Homo sapiens, NHEK, 72 h, Table 4, Test F, 0.625 mM, read-out: Keratinocyte Proliferation (% increase over control)): 34% | activation at 1250 µM ([1]; Homo sapiens, NHEK, 72 h, Table 4, Test F, 1.25 mM, read-out: Keratinocyte Proliferation (% increase over control)): 35% | activation at 2500 µM ([1]; Homo sapiens, NHEK, 72 h, Table 4, Test F, 2.5 mM, read-out: Keratinocyte Proliferation (% increase over control)): 33% | activation at 5000 µM ([1]; Homo sapiens, NHEK, 72 h, Table 4, Test F, 5.0 mM, read-out: Keratinocyte Proliferation (% increase over control)): 7% | activation at 10000 µM ([1]; Homo sapiens, NHEK, 72 h, Table 4, Test F, 10 mM, read-out: Keratinocyte Proliferation (% increase over control)): 0% | activation at 313 µM ([1]; Homo sapiens, NHEK, 72 h, Table 4, Test G, 0.313 mM, read-out: Keratinocyte Proliferation (% increase over control)): 38% | activation at 625 µM ([1]; Homo sapiens, NHEK, 72 h, Table 4, Test G, 0.625 mM, read-out: Keratinocyte Proliferation (% increase over control)): 11% | activation at 1250 µM ([1]; Homo sapiens, NHEK, 72 h, Table 4, Test G, 1.25 mM, read-out: Keratinocyte Proliferation (% increase over control)): 24% | activation at 2500 µM ([1]; Homo sapiens, NHEK, 72 h, Table 4, Test G, 2.5 mM, read-out: Keratinocyte Proliferation (% increase over control)): 12% | activation at 5000 µM ([1]; Homo sapiens, NHEK, 72 h, Table 4, Test G, 5.0 mM, read-out: Keratinocyte Proliferation (% increase over control)): 18% | activation at 10000 µM ([1]; Homo sapiens, NHEK, 72 h, Table 4, Test G, 10 mM, read-out: Keratinocyte Proliferation (% increase over control)): 0% | Keratinocyte proliferation, % Increase Over Control ([1]; 0.156 mM): 41% | Keratinocyte proliferation, % Increase Over Control ([1]; 0.313 mM): 28% | Keratinocyte proliferation, % Increase Over Control ([1]; 0.625 mM): 55% | Keratinocyte proliferation, % Increase Over Control ([1]; 1.25 mM): 55% | Keratinocyte proliferation, % Increase Over Control ([1]; 2.5 mM): 18% | Keratinocyte proliferation, % Increase Over Control ([1]; 5.0 mM): 0%

O=C(O)CC(=O)C(=O)O [Oxaloacetate]
Collagen Synthesis, Maximum fold over Control (procollagen 1): 3.0 fold | activation at 2 µM ([1]; Homo sapiens, NHEK, 72 h, read-out: Keratinocyte Proliferation (% increase over Control), Table 5, Test A, 0.002 mM): 11% | activation at 20 µM ([1]; Homo sapiens, NHEK, 72 h, read-out: Keratinocyte Proliferation (% increase over Control), Table 5, Test A, 0.02 mM): 15% | activation at 200 µM ([1]; Homo sapiens, NHEK, 72 h, read-out: Keratinocyte Proliferation (% increase over Control), Table 5, Test A, 0.2 mM): 22% | activation at 2000 µM ([1]; Homo sapiens, NHEK, 72 h, read-out: Keratinocyte Proliferation (% increase over Control), Table 5, Test A, 2.0 mM): 53% | activation at 10000 µM ([1]; Homo sapiens, NHEK, 72 h, read-out: Keratinocyte Proliferation (% increase over Control), Table 5, Test A, 10 mM): 110% | activation at 20 µM ([1]; Homo sapiens, NHEK, 72 h, read-out: Keratinocyte Proliferation (% increase over Control), Table 5, Test B, 0.02 mM): 30% | activation at 200 µM ([1]; Homo sapiens, NHEK, 72 h, read-out: Keratinocyte Proliferation (% increase over Control), Table 5, Test B, 0.2 mM): 20% | activation at 2000 µM ([1]; Homo sapiens, NHEK, 72 h, read-out: Keratinocyte Proliferation (% increase over Control), Table 5, Test B, 2.0 mM): 16% | activation at 10000 µM ([1]; Homo sapiens, NHEK, 72 h, read-out: Keratinocyte Proliferation (% increase over Control), Table 5, Test B, 10 mM): 70% | activation at 20000 µM ([1]; Homo sapiens, NHEK, 72 h, read-out: Keratinocyte Proliferation (% increase over Control), Table 5, Test B, 20 mM): 44% | activation at 150 µM ([1]; Homo sapiens, NHEK, 72 h, read-out: Keratinocyte Proliferation (% increase over Control), Table 5, Test C, 0.15 mM): 13% | activation at 300 µM ([1]; Homo sapiens, NHEK, 72 h, read-out: Keratinocyte Proliferation (% increase over Control), Table 5, Test C, 0.3 mM): 18% | activation at 600 µM ([1]; Homo sapiens, NHEK, 72 h, read-out: Keratinocyte Proliferation (% increase over Control), Table 5, Test C, 0.6 mM): 20% | activation at 1250 µM ([1]; Homo sapiens, NHEK, 72 h, read-out: Keratinocyte Proliferation (% increase over Control), Table 5, Test C, 1.25 mM): 18% | activation at 2500 µM ([1]; Homo sapiens, NHEK, 72 h, read-out: Keratinocyte Proliferation (% increase over Control), Table 5, Test C, 2.5 mM): 40% | activation at 5000 µM ([1]; Homo sapiens, NHEK, 72 h, read-out: Keratinocyte Proliferation (% increase over Control), Table 5, Test C, 5.0 mM): 35% | activation at 10000 µM ([1]; Homo sapiens, NHEK, 72 h, read-out: Keratinocyte Proliferation (% increase over Control), Table 5, Test C, 10 mM): 0% | activation at 80 µM ([1]; Homo sapiens, NHEK, 72 h, read-out: Keratinocyte Proliferation (% increase over Control), Table 5, Test D, 0.08 mM): 56% | activation at 150 µM ([1]; Homo sapiens, NHEK, 72 h, read-out: Keratinocyte Proliferation (% increase over Control), Table 5, Test D, 0.15 mM): 76% | activation at 300 µM ([1]; Homo sapiens, NHEK, 72 h, read-out: Keratinocyte Proliferation (% increase over Control), Table 5, Test D, 0.3 mM): 63% | activation at 600 µM ([1]; Homo sapiens, NHEK, 72 h, read-out: Keratinocyte Proliferation (% increase over Control), Table 5, Test D, 0.6 mM): 48% | activation at 1250 µM ([1]; Homo sapiens, NHEK, 72 h, read-out: Keratinocyte Proliferation (% increase over Control), Table 5, Test D, 1.25 mM): 37% | activation at 2500 µM ([1]; Homo sapiens, NHEK, 72 h, read-out: Keratinocyte Proliferation (% increase over Control), Table 5, Test D, 2.5 mM): 37% | activation at 5000 µM ([1]; Homo sapiens, NHEK, 72 h, read-out: Keratinocyte Proliferation (% increase over Control), Table 5, Test D, 5.0 mM): 52% | activation at 10000 µM ([1]; Homo sapiens, NHEK, 72 h, read-out: Keratinocyte Proliferation (% increase over Control), Table 5, Test D, 10 mM): 52%
